This is an account of results in ChEMBL document CHEMBL2202996, “Synthesis, evaluation, and radiolabeling of new potent positive allosteric modulators of the metabotropic glutamate receptor 2 as potential tracers for positron emission tomography imaging” (J Med Chem, 2012).

In data set [1] the test system is Cerebellum. The data set is described as follows: Ratio of SUV in cerebellum in iv dosed Wistar at 2 mins post administration by gamma counting to SUV in cerebellum in iv dosed Wistar at 30 mins post administration by gamma counting. Format: ADME, organism-based. Conditions: rat, in vivo; call rule not given here.
In the next data set the test system is Striatum. The data set is described as follows: Ratio of SUV in striatum in iv dosed Wistar at 2 mins post administration by gamma counting to SUV in striatum in iv dosed Wistar at 30 mins post administration by gamma counting. Format: ADME, organism-based. The following applies: rat, in vivo.
A short description of data set [2]: Metabolic stability in Wistar rat cerebellum assessed as intact tracer at 74 MBq, iv measured at 30 mins post administration by gamma counting. Format: ADME, organism-based. The following applies: read-out: Stability.
For the next data set, the system named is Rattus norvegicus. The data set is described as follows: Biodistribution in Wistar rat urinary system at 22 Mbq, iv measured at 60 mins post administration by gamma counting. Format: ADME, organism-based, Urine. The following applies: in vivo, 1 h.
The nature of data set [3]: Metabolic stability in Wistar rat plasma assessed as intact tracer at 74 MBq, iv measured at 30 mins post administration by gamma counting. Format: ADME, organism-based. Conditions: read-out: Stability.
Data set [4] deals with Brain. The data set is described as follows: Ratio of SUV in total brain in iv dosed Wistar at 2 mins post administration by gamma counting to SUV in total brain in iv dosed Wistar at 30 mins post administration by gamma counting. In kind it is ADME, organism-based. The following applies: rat, in vivo.
Another data set has as its system Liver. Description: Biodistribution in Wistar rat liver at 22 Mbq, iv measured at 60 mins post administration by gamma counting. In kind it is ADME, organism-based. Conditions: in vivo, 1 h.
In a further data set the test system is Cortex. The data set is described as follows: Ratio of SUV in cortex in iv dosed Wistar at 2 mins post administration by gamma counting to SUV in cortex in iv dosed Wistar at 30 mins post administration by gamma counting. In kind it is ADME, organism-based. The following applies: rat, in vivo.
Data set [5] is described as follows: Metabolic stability in Wistar rat cerebrum assessed as intact tracer at 74 MBq, iv measured at 30 mins post administration by gamma counting. In kind it is ADME, organism-based. Conditions: read-out: Stability.
A further data set concerns Hippocampus. The data set is described as follows: Ratio of SUV in hippocampus in iv dosed Wistar at 2 mins post administration by gamma counting to SUV in hippocampus in iv dosed Wistar at 30 mins post administration by gamma counting. Format: ADME, organism-based. Conditions: rat, in vivo.
Data set [6] concerns Brain. Description: Biodistribution in Wistar rat brain at 22 Mbq, iv measured at 2 mins post administration by gamma counting. Format: ADME, organism-based. The following applies: in vivo.
Data set [7] deals with Cerebellum. Description: Biodistribution in Wistar rat cerebellum at 22 Mbq, iv measured at 2 mins post administration by gamma counting. Format: ADME, organism-based. The following applies: in vivo.
Data set [8] relates to Cerebrum. Description: Ratio of SUV in cerebrum in iv dosed Wistar at 2 mins post administration by gamma counting to SUV in cerebrum in iv dosed Wistar at 30 mins post administration by gamma counting. The following applies: rat, in vivo. Format: ADME, organism-based.
Another data set has as its system Intestine. Description: Biodistribution in Wistar rat intestine at 22 Mbq, iv measured at 60 mins post administration by gamma counting. In kind it is ADME, organism-based. The following applies: in vivo, 1 h.
In data set [9] the test system is Cerebrum. Description: Biodistribution in Wistar rat cerebrum at 22 Mbq, iv measured at 2 mins post administration by gamma counting. Format: ADME, organism-based. The following applies: in vivo.
The target of data set [10] is T1, D(1A) dopamine receptor (Homo sapiens, UniProt P21728). The data set is described as follows: Binding affinity to dopamine D1 receptor at 10 uM by CEREP assay.
A short description of data set [11]: Ratio of drug level in brain to plasma of Wistar rat brain at 0.63 mg/kg, iv. On the set-up: dose 0.63 mg/kg, route intravenous. Conditions: read-out: BPR. Format: ADME, organism-based.
Data set [12] has as its system HEK293. Description: Selectivity ratio for human mGluR8 expressed in HEK293 cells to human mGluR2 expressed in CHO cell membranes. Format: cell-based.
The subject of data set [13] is Liver microsomes. Description: Drug metabolism in human liver microsomes assessed as O-methylated compound derivative. Format: ADME, Microsome.
A short description of data set [14]: Cmax in Wistar rat brain at 0.63 mg/kg, iv after 5 mins. In kind it is ADME, organism-based. On the set-up: dose 0.63 mg/kg, route intravenous.
The subject of data set [15] is CHO. The data set is described as follows: Selectivity ratio for rat mGluR6 to human mGluR2 expressed in CHO cell membranes. Format: cell-based.
Data set [16] deals with T2, Metabotropic glutamate receptor 2 (Homo sapiens, UniProt Q14416). Description: Agonist activity at human mGLuR2 expressed in CHO cell membrane assessed as […] after 30 mins by scintillation counting relative to control. In kind it is functional, cell membranes.
Target sequence in this assay (Q14416 19-872 limits assumed): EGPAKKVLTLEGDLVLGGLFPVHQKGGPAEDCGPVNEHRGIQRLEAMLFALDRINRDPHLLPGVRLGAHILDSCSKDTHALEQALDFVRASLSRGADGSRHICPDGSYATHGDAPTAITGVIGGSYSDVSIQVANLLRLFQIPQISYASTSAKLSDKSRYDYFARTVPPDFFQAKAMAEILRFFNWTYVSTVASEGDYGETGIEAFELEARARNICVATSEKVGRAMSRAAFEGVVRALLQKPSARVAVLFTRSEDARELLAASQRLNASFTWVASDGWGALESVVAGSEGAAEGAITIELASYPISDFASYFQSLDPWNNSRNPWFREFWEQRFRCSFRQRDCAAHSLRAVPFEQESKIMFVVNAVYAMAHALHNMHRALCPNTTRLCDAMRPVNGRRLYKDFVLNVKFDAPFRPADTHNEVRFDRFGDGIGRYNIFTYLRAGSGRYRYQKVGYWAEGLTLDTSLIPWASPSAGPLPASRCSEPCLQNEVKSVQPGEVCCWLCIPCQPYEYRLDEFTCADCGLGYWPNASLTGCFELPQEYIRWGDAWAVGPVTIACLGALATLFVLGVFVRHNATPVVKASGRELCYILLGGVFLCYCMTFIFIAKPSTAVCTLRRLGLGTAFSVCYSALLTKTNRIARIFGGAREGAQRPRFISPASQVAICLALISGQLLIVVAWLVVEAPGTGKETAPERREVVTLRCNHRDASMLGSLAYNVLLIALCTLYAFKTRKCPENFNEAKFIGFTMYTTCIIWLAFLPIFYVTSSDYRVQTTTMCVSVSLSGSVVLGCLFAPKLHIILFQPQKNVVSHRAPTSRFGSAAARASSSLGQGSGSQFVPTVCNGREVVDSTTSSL
Data set [17] has as its target T3, Sodium-dependent dopamine transporter (Homo sapiens, UniProt Q01959). Description: Binding affinity to DAT at 10 uM by CEREP assay.
Data set [18] concerns HEK293. The data set is described as follows: Selectivity ratio for human mGluR3 expressed in HEK293 cells to human mGluR2 expressed in CHO cell membranes. Format: cell-based.
Data set [19] relates to Liver microsomes. Description: Drug metabolism in human liver microsomes assessed as M+O oxidative metabolite. In kind it is ADME, Microsome.
Data set [20] deals with T2, Metabotropic glutamate receptor 2. Description: Agonist activity at human mGLuR2 expressed in CHO cell membrane assessed as […] after 30 mins by scintillation counting. The following applies: read-out: EC50. In kind it is functional, cell membranes.
Target sequence in this assay (Q14416 whole entry): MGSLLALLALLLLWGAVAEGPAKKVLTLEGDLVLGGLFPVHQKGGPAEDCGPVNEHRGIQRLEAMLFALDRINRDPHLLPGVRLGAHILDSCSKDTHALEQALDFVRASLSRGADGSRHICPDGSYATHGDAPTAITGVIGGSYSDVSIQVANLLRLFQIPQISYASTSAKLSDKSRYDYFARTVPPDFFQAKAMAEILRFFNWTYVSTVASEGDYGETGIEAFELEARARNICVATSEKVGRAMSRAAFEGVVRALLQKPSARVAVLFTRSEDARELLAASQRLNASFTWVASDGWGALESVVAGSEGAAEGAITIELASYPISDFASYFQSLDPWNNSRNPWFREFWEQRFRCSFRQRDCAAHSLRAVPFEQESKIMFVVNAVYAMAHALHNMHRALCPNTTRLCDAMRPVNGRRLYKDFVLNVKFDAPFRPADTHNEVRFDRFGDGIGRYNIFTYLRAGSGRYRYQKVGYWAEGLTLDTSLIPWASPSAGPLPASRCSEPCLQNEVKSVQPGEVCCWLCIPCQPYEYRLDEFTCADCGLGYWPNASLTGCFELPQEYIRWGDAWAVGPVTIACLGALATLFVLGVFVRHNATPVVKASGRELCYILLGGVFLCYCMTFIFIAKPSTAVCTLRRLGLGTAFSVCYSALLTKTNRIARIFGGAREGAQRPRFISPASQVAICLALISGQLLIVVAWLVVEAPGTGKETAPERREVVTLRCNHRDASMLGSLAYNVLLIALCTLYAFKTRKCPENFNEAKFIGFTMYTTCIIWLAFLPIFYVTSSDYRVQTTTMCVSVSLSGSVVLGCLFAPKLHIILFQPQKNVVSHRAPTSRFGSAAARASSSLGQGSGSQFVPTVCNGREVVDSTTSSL
For data set [21], the target named is T3, Sodium-dependent dopamine transporter. Description: Binding affinity to DAT.
Data set [22] addresses T1, D(1A) dopamine receptor. Description: Binding affinity to dopamine D1 receptor.
In data set [23] the target is T2, Metabotropic glutamate receptor 2. The data set is described as follows: Displacement of [3H]JNJ-40068782 from human mGLuR2 expressed in CHO cell membrane after 60 mins by liquid scintillation counting. In kind it is cell membranes.
Target sequence in this assay (Q14416 whole entry): as above
The nature of data set [24]: Fraction unbound in human plasma. In kind it is ADME, cell-free.
Data set [25] can be described thus: Drug level in Wistar rat brain at 0.63 mg/kg, iv after 1 hr. In kind it is ADME, organism-based. More on the design: dose 0.63 mg/kg, route intravenous. Conditions: read-out: Drug uptake.
Data set [26] in a line: Fraction unbound in rat plasma. In kind it is ADME, cell-free.
Data set [27] relates to HEK293. Description: Selectivity ratio for human mGluR5 expressed in HEK293 cells to human mGluR2 expressed in CHO cell membranes. In kind it is cell-based.
The subject of data set [28] is Liver microsomes. Description: Drug metabolism in rat liver microsomes assessed as O-methylated compound derivative. Format: ADME, Microsome.
For data set [29], the system named is HEK293. The data set is described as follows: Selectivity ratio for human mGluR1 expressed in HEK293 cells to human mGluR2 expressed in CHO cell membranes. In kind it is cell-based.
For data set [30], the system named is CHO. The data set is described as follows: Selectivity ratio for human mGluR4 to human mGluR2 expressed in CHO cell membranes. In kind it is cell-based.
For data set [31], the system named is HEK293. Description: Selectivity ratio for human mGluR7 expressed in HEK293 cells to human mGluR2 expressed in CHO cell membranes. In kind it is cell-based.
Data set [32] deals with Liver microsomes. Description: Drug metabolism in rat liver microsomes assessed as M+O oxidative metabolite. Format: ADME, Microsome.

Where only a bound is given, the exact number is not on record here.

T1 sequence (P21728 whole entry): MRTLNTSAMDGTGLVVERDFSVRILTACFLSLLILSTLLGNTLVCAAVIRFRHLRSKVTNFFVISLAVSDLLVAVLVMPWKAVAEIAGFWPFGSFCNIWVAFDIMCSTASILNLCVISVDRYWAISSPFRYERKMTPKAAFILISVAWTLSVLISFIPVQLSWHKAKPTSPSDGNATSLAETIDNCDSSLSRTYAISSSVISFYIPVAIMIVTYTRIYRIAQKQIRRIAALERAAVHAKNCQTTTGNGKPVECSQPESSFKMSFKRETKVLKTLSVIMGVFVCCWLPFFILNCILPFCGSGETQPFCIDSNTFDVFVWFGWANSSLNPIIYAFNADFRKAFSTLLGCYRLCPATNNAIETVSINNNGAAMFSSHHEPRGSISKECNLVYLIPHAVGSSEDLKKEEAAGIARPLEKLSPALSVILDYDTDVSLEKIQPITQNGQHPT
T3 sequence (Q01959 whole entry): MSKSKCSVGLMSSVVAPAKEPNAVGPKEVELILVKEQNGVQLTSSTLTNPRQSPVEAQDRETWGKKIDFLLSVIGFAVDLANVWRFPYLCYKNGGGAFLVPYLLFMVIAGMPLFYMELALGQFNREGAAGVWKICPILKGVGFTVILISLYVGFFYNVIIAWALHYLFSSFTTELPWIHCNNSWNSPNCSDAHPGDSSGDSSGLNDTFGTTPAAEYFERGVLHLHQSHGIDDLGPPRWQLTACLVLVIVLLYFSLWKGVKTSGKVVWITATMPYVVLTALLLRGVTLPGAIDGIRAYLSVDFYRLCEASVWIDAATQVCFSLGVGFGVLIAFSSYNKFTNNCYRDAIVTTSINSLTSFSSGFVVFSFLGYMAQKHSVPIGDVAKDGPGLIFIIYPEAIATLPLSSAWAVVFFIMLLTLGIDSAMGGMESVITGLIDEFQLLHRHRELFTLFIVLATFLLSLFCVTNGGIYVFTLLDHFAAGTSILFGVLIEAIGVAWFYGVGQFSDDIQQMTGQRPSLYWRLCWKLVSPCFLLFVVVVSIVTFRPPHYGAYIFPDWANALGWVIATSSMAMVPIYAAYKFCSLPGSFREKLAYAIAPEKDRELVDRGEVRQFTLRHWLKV

On to `[11CH3]Oc1cc(F)cc(F)c1C1CCN(c2ccn3c(CC4CC4)nnc3c2Cl)CC1`, for which the Ratio with Cerebellum [1] came out at 0.77; with Striatum, 0.67; with Brain [4], 0.88; in the data set on Cortex, 0.66; with Hippocampus, 0.71; in the data set with Cerebrum [8], 0.72. Further, the remaining at 0.5 h is 95.5% in data set [2], 30.8% in data set [3] and 92.9% in data set [5]. The Drug uptake result is “Active” with Rattus norvegicus; “Active” in the data set on Liver; 0.75 %ID in the data set on Brain [6]; 0.18 %ID with Cerebellum [7]; “Active” in the data set with Intestine; 0.53 %ID in the data set with Cerebrum [9].
With `COc1ccc(F)cc1C1CCN(c2ccn3c(CC4CC4)nnc3c2Cl)CC1`, the figures for the Activity (on D(1A) dopamine receptor [10]; in data set [17]) were 71% and 83%, respectively. For the same molecule, the Kp in data set [11] came to 1.1. The Selectivity ratio with HEK293 [12] was greater than 350; with CHO [15], greater than 350; in the data set on HEK293 [18], 40; in the data set with HEK293 [27], greater than 350; in the data set on HEK293 [29], greater than 350; in the data set with CHO [30], greater than 350. In addition, the Selectivity ratio in the data set on HEK293 [31] was greater than 350. Besides, the Drug metabolism result in the data set with Liver microsomes [13], with Liver microsomes [19], in the data set on Liver microsomes [28] and in the data set with Liver microsomes [32] was “Active” each time. For the same molecule, the peak level in data set [14] (Cmax) was 316 ng/g. For the same molecule, the Emax in data set [16] turned out to be 283%. In addition, in [20], the EC50 was determined as 8.2 nM. Moreover, the figures for the Ki (in [21]; at D(1A) dopamine receptor [22]) were 5010 nM and no less than 6200 nM, respectively. Also, the concentration for half-maximal inhibition (IC50) in data set [23] was found to be 11.2 nM. Besides, the fraction unbound in data set [24] and in [26] was less than 0.01 throughout. The concentration at 1 h in data set [25] is 50 ng/g.
With `COc1c(F)ccc(F)c1C1CCN(c2ccn3c(CC4CC4)nnc3c2Cl)CC1`, the Activity on D(1A) dopamine receptor [10] stood at 76%; in data set [17] it was 52%. Besides, the Selectivity ratio in the data set on HEK293 [12], with CHO [15], in the data set on HEK293 [18], with HEK293 [27], in the data set on HEK293 [29] and in the data set on CHO [30] was greater than 350 each time. Moreover, in the data set with HEK293 [31], the Selectivity ratio was greater than 350. Moreover, the Drug metabolism entry in the data set with Liver microsomes [13], in the data set on Liver microsomes [19], in the data set on Liver microsomes [28] and in the data set on Liver microsomes [32] was “Active” each time. Besides, the Emax in data set [16] was 282%. Besides, the EC50 in data set [20] came out at 7.5 nM. For the same molecule, the inhibitory constant (Ki) in data set [21] is greater than 8500 nM; at D(1A) dopamine receptor [22], no less than 6200 nM. Also, the IC50 in data set [23] was found to be 9.23 nM. Also, the fraction unbound in [24] and in [26] was less than 0.01 in each case.
For `[11CH3]Oc1ccc(F)c(F)c1C1CCN(c2ccn3c(CC4CC4)nnc3c2Cl)CC1`, the Ratio amounted to 0.95 in the data set on Cerebellum [1]; 0.99 in the data set with Striatum; 0.93 in the data set on Brain [4]; 0.84 with Cortex; 1.19 in the data set on Hippocampus; 0.84 with Cerebrum [8]. The results for the remaining at 0.5 h in data set [2], in data set [3] and in data set [5] were 96.4%, 45.5% and 93.1%, respectively. Also, the Drug uptake result with Rattus norvegicus is “Active”; in the data set on Liver, “Active”; in the data set with Brain [6], 0.64 %ID; in the data set on Cerebellum [7], 0.15 %ID; in the data set on Intestine, “Active”; with Cerebrum [9], 0.46 %ID.
